# Counter-ions that a name gives are not always drawn.
# Biological target: T1, human MCH1R receptor (Homo sapiens, UniProt Q99705)
# T1 construct: host or cells: CHO-K1
# Assay: MCH1R receptor binding by SPA ([125I]-MCH displacement)
# Conditions: 0.2 nM [125I]-MCH, membranes of CHO-K1 cells expressing hMCH1 receptor, WGA SPA beads; Ki calculated from IC50
# Experimental: The compounds according to the invention were evaluated for their binding to the human MCH1R receptor by the following method:
# Compounds: MCH peptide was purchased from Phoenix pharmaceuticals. (Phe^13, [^125I]Tyr^19 Melanine-Concentrating Hormone (human, mouse, rat) ([^125I]-MCH) was obtained from NEN life Science Products. Inc. Boston, Mass. Wheat germ agglutinine SPA beads (RPNQ 0001) were obtained from Amersham-Pharmacia Biotech. All other reagents used are of highest purity from different resources available. Protein Kits, Micro BCA™ Protein Assay Reagent Kit (Cat No. 23235) were purchased from Piece, Rockford, Ill., USA.
# CHO-K1 cells expressing hMCH1 receptor were purchased from Euroscreen.
# CHO-K1 hMCHR1 (Euroscreen, Brussels, Belgium, # ES-370-C) were cultivated in Nutrient mixture Ham's F-12 with Glutamax I (Gibco-BRL #31765-027) supplemented with 10% heat-inactivated foetal calf serum (FCS, Gibco-BRL #10108-165) and 400 μg/ml geniticin (Gibco-BRL #1140-0359). The cells were sub-cultivated twice weekly with split ratio=1:20-1:30. For membrane preparation the cells were cultured in […] and the cells were harvested when 90% confluent.
# When the cells reached more than 90% confluence, dishes (500 cm^2) were rinsed twice with 20 ml PBS (Ca^2+ and Mg^2+ free). Buffer A, which contains Tris.HCl (15), MgCl2.6H2O (2), EDTA (0.3), EGTA (1) in mM with pH 7.5, 25 ml was added and cells were suspended using a window scraper. The cells were collected in 50 ml Falcon tube pre-cooled on ice and then centrifuged for 3 minutes at 1500 g at 4° C. […]
# The radio labeled [^125I]-MCH was diluted with cold MCH in ratio 1:3. […] The results were calculated using Excel program and the curves were drawn using a program GraphPad Prism.
# For screening of the substances the amount of the beads used was 0.25 mg/well and the amount of the membrane protein was 4 μg/well 0.2 nM of labeled MCH was used. […] The samples were counted using Microbeta counter (Wallac Trilux 1450 Micro beta counter, Wallac, Finland) for 2 minutes and the results were calculated by using the computer program Activity Base. […]
# T1 sequence (Q99705 whole entry): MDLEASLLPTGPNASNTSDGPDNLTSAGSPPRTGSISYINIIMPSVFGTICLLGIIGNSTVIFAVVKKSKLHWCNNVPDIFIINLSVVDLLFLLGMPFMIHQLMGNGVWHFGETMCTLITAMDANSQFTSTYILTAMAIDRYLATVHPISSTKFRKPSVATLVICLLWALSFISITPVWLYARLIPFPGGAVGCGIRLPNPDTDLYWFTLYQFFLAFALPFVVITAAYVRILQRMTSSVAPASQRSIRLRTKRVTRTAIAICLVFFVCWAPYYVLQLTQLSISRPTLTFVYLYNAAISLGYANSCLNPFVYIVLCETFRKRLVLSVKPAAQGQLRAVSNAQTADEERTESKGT
row,Compound,Ki
1,"C=CCN(C(=O)Nc1ccc(Cl)c(C(F)(F)F)c1)C1CCC2(c3ccc(OC)c(OC)c3)CCN(C)C2C1 (stereo not drawn) [Example 159, N-ally-N′-[4-chloro-3-(trifluoromethyl)phenyl]-N-[(3aS*,6R*,7aS*)-3a-(3,4-dimethoxyphenyl)-1-methyloctahydro-1H-indol-6-yl]urea]",75 nM
2,"COc1ccc([C@@]23CC[C@@H](NC(=O)Nc4ccc(OC(F)(F)F)cc4)C[C@@H]2N(C)CC3)cc1OC (relative stereo) [Example 70, N-[(3aS*,6R*,7aS*)-3a-(3,4-dimethoxyphenyl)-1-methyloctahydro-1H-indol-6-yl]-N′-[4-(trifluoromethoxy)phenyl]urea trifluoroacetate]",52 nM
3,"CCOc1ccc([C@@]23CC[C@@H](NC(=O)Nc4ccc(F)c(F)c4)C[C@@H]2N(C)CC3)cc1OCC (relative stereo) [Example 208, N-[(3aS*,6R*,7aS*)-3a-(3,4-diethoxyphenyl)-1-methyloctahydro-1H-indol-6-yl]-N′-(3,4-difluoro]henyl)urea trifluoroacetate]",258 nM

# Reference: patent publication US20050239841A1, “New compounds” (priority 2003, published 2005)
